The supplement of paper PMC10878532, “Sperm Toolbox—A selection of small molecules to study human spermatozoa” (PLOS ONE, 2024)
Counter-ions that a name gives are not always drawn.

Assays:
[1] = tested on: human spermatozoa; assay: change in acrosome-reacted (PNA+) sperm vs DMSO, no agonist (capacitating); higher = more of the measured sperm population than DMSO, for viability, fewer PI-positive (dead) cells than DMSO; conditions: incubation time: 3h
[2] = tested on: HeLa; assay: HeLa toxicity: nuclei-count effect normalised to DMSO (DMSO = 0); higher = more features changed / larger toxic effect; conditions: incubation time: 24h incubation
[3] = tested on: human spermatozoa; assay: viability fold change, 1 - (PI-positive fraction / DMSO median); higher = more of the measured sperm population than DMSO, for viability, fewer PI-positive (dead) cells than DMSO; conditions: incubation time: 3h, non-capacitating
[4] = tested on: human spermatozoa; assay: hyperactivated motile sperm, percent change vs DMSO (capacitating); higher = more of the measured sperm population than DMSO, for viability, fewer PI-positive (dead) cells than DMSO; conditions: incubation time: 30min incubation
[5] = tested on: HeLa; assay: Cell Painting percent induction (share of features beyond 2 z-scores vs DMSO); higher = more features changed / larger toxic effect; extreme values may be limits of the assay; conditions: incubation time: 24h incubation
[6] = tested on: human spermatozoa; assay: progressively motile sperm, percent change vs DMSO (capacitating); higher = more of the measured sperm population than DMSO, for viability, fewer PI-positive (dead) cells than DMSO; conditions: incubation time: 30min incubation
[7] = tested on: HepG2; assay: HepG2 toxicity (resazurin), effect normalised to DMSO (DMSO = 0); higher = more features changed / larger toxic effect; conditions: incubation time: 70h incubation
[8] = tested on: human spermatozoa; assay: progressively motile sperm, percent change vs DMSO (non-capacitating); higher = more of the measured sperm population than DMSO, for viability, fewer PI-positive (dead) cells than DMSO; extreme values may be limits of the assay
[9] = tested on: human spermatozoa; assay: total motile sperm, percent change vs DMSO (non-capacitating); higher = more of the measured sperm population than DMSO, for viability, fewer PI-positive (dead) cells than DMSO
[10] = tested on: human spermatozoa; assay: acrosome-reacted (PNA+) sperm after agonist cocktail, percent change vs DMSO (capacitating); higher = more of the measured sperm population than DMSO, for viability, fewer PI-positive (dead) cells than DMSO; conditions: incubation time: 3h, capacitating + agonist cocktail 1h
[11] = incubation time: 10min incubation, 9.99 µM
[12] = incubation time: 10min incubation, 29.9 µM
[13] = incubation time: 3h incubation, 9.99 µM
[14] = incubation time: 3h incubation, 29.9 µM
[15] = incubation time: 6h incubation, 9.99 µM
[16] = incubation time: 6h incubation, 29.9 µM
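Throughout, for progressively motile sperm, percent change vs DMSO (non-capacitating): pooled live human sperm from at least 3 donors, tracked by automated microscopy in 0.5 s time-lapse movies, compounds at 10 and 30 µM, versus median of 16 DMSO wells per plate.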
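Throughout, for total motile sperm, percent change vs DMSO (non-capacitating): sperm pooled from at least 3 donors, tracked in 0.5 s time-lapse movies by automated microscopy after 10 min, 3 h or 6 h with compound at 10 or 30 µM.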

Structure (SMILES) | change in acrosome-reacted ([1]; 9.99 µM) [%] | change in acrosome-reacted ([1]; 29.9 µM) [%] | HeLa toxicity: nuclei-count effect normalised ([2]; 9.99 µM) [%] | HeLa toxicity: nuclei-count effect normalised ([2]; 29.9 µM) [%] | viability fold change ([3]; 9.99 µM) | viability fold change ([3]; 29.9 µM) | hyperactivated motile sperm ([4]; 9.99 µM) [%] | hyperactivated motile sperm ([4]; 29.9 µM) [%] | Cell Painting percent induction ([5]; 9.99 µM) [%] | Cell Painting percent induction ([5]; 29.9 µM) [%] | progressively motile sperm ([6]; 9.99 µM) [%] | progressively motile sperm ([6]; 29.9 µM) [%] | HepG2 toxicity ([7]; 10 µM) [%] | HepG2 toxicity ([7]; 30 µM) [%] | progressively motile sperm [8, 11] [%] | progressively motile sperm [8, 12] [%] | progressively motile sperm [8, 13] [%] | progressively motile sperm [8, 14] [%] | progressively motile sperm [8, 15] [%] | progressively motile sperm [8, 16] [%] | total motile sperm [9, 11] [%] | total motile sperm [9, 12] [%] | total motile sperm [9, 13] [%] | total motile sperm [9, 14] [%] | total motile sperm [9, 15] [%] | total motile sperm [9, 16] [%] | acrosome-reacted ([10]; 9.99 µM) [%] | acrosome-reacted ([10]; 29.9 µM) [%]
COc1cc(C(=O)N2CCC(N3CCN(C)CC3)CC2)ccc1Nc1ncc2c(n1)N(C)c1ccccc1C(=O)N2C [LRRK2-IN-1] | 1.4 | 1.43 | 44.2 | 53.9 | -0.856 | -0.909 | 224 | 215 | 5.8 | 10.2 | 7.96 | 4.98 | 7.52 | 56.2 | 31.1 | 27.8 | 57.2 | 50.6 | 62.8 | 43.3 | -2.77 | -1.16 | -9.9 | -13 | -11.9 | -17.6 | 58.9 | 103
CC(C)c1ccc2c(c1)CC[C@H]1[C@](C)(CN)CCC[C@]21C [Leelamine hydrochloride] | 5.38 | 14.4 | 88.2 | 98.4 | -1.89 | -2.79 | -31 | -87.5 | 25.1 | 36.4 | 4.41 | -53.6 | 102 | 103 | 15.1 | -12.8 | 51.8 | -74.2 | 59.5 | -84.3 | -0.495 | -12.1 | 1.52 | -51.7 | -1.74 | -63.5 | 41.7 | 60.2
C[C@]1(O)C[C@@H](c2nc(-c3ccc4ccc(-c5ccccc5)nc4c3)c3c(N)nccn32)C1 [Linsitinib] | 1.26 | 1.92 | 2.74 | 25 | -1.24 | -1.48 | 219 | 114 | 1.62 | 0.144 | 10.2 | 14.7 | -2.88 | 27.2 | 43.2 | 45.9 | 71.3 | 65.1 | 93.9 | 79.2 | 2.7 | 5.16 | -8.39 | -6.08 | -8.05 | -11.2 | 115 | 113
CCCCCCCCCCCCCCCCOCC(COCC(F)(F)F)OP(=O)([O-])OC (configuration not stated) [MJ33] | 0.541 | 1 | 6.41 | 1 | -0.678 | -0.975 | 21.6 | 9.77 | 0 | 0.036 | 10.8 | 15.1 | -0.425 | 2.58 | 3.5 | 11.9 | -6.92 | -2.7 | -4.8 | -4.44 | 2.25 | 4.52 | -13.2 | 0.791 | -9.12 | -4.03 | 6.57 | 19.6
